Measurements published in patent US20210379033A1, “METHODS OF TREATING CANCER WITH ARYL HYDROCARBON RECEPTOR ANTAGONISTS” (Magenta Therapeutics Inc., priority 2018, published 2021).
Read-outs that look alike come from different tables or passages of the source.

Legend:
[1] = target: T1, aryl hydrocarbon receptor (AHR) (Homo sapiens, UniProt P35869); assay: AHR antagonist assay: luciferase reporter in HepG2 cells transiently transfected with pGudLuc8.1; type: cell-based; conditions: HepG2 cells, 25,000 cells per well, luciferase activity 24 hours post-culture
T1 construct: HepG2 cells transiently transfected with the pGudLuc8.1 plasmid were thawed and 25,000 cells were plated per well; endogenous in cells; host or cells: HepG2
T1 sequence (P35869 11-848): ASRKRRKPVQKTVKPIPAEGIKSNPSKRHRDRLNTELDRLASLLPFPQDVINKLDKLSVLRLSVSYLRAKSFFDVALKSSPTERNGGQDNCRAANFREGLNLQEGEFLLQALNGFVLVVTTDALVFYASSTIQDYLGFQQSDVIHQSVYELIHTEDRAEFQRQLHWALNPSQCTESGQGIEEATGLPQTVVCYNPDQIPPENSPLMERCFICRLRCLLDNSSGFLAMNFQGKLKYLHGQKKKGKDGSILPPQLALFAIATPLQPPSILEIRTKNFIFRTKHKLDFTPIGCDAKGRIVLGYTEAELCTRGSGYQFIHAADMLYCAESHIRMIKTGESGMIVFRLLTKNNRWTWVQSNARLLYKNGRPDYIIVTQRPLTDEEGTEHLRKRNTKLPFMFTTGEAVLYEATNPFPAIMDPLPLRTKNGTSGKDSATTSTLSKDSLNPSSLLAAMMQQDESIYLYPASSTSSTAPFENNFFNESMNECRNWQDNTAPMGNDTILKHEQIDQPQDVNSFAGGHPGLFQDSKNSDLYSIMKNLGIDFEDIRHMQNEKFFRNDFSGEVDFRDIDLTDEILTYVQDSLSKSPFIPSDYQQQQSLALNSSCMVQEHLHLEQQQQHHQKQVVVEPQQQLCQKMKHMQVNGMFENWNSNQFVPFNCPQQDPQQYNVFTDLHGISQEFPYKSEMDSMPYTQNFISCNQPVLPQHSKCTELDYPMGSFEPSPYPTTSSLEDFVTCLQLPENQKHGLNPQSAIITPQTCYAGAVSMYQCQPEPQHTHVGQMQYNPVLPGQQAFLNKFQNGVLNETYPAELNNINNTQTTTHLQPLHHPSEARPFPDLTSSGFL
Experimental: To determine the activity of a scale-up batch of Compound (24), individual enantiomers, and two derivatives Compound (27) and Compound (28) were evaluated for AHR antagonist activity. The compounds were compared to control AHR antagonist SR1, an additional control AHR antagonist, and stored sample of Compound (24)
Methods—HepG2 cells transiently transfected with the pGudLuc8.1 plasmid were thawed and 25,000 cells were plated per well and immediately treated the AHR agonist VAF347 (fixed at 40 nM) and/or the indicated AHR antagonists. Luciferase activity was measured 24 hours post-culture, corresponding to endogenous AHR antagonist activity (without VAF347, FIG. 8) or in the presence of VAF347 (FIG. 9). All synthesized compounds show equivalent AHR antagonist activity if not greater than SR1.

[2] = target: T2, aryl hydrocarbon receptor (Homo sapiens, UniProt P35869); assay: Aryl hydrocarbon receptor-driven luciferase reporter in transiently transfected HepG2 cells (Example 3); type: cell-based; conditions: absence (FIG. 1) or presence (FIG. 2) of agonist VAF347 (80 nM), luciferase six hours after plating
T2 construct: HepG2 cells transiently transfected with the pGudLuc8.1 plasmid were thawed and 25,000 cells were plated per well; endogenous in cells; host or cells: HepG2
T2 sequence (P35869 11-848): T1 sequence (P35869 11-848)
Experimental: Experimental details for this experiment are reported in Example 3, below.
To determine the ability of compounds (5) and (16) to inhibit the activity of the aryl hydrocarbon receptor and to induce the proliferation of hematopoietic stem cells, a series of HSC expansion experiments were conducted. In the first experiment, compounds (5) and (16) were assessed for their capacity to attenuate aryl hydrocarbon receptor signaling. To this end, HepG2 hepatocytes were transiently transfected with a luciferase reporter construct under the control of a promoter responsive to aryl hydrocarbon receptor signal transduction. The cells were plated at a density of 25,000 cells per well in a microtiter plate. The HepG2 cells were immediately treated with compound (5) or (16) in the absence (FIG. 1) or presence (FIG. 2) of the aryl hydrocarbon receptor agonist, VAF347 (80 nM). Luciferase activity was subsequently analyzed six hours after plating.

SMILES	EC50 ([1]; AHR agonist VAF347 fixed at 40 nM, read-out: AHR Antagonist Activity in the Presence of VAF347 EC50)	EC50 ([1]; without VAF347, read-out: Endogenous AHR Antagonist Activity EC50)	suppression of aryl hydrocarbon receptor activity (luciferase) [2]
CC(C)n1cnc2c(NCCc3ccc(O)cc3)nc(-c3csc4ccccc34)nc21 [SR1]	193 nM	33 nM	
CCC(C)c1cnc2c(NCCc3c[nH]c4ccccc34)cc(-c3cncc(F)c3)cn12 (stereo not shown) [Compound (5)]			capable of suppressing aryl hydrocarbon receptor activity even in the presence of the activator VAF347
CCC(C)c1cnc2c(NCCc3c[nH]c4ccccc34)nc(-c3cncc(F)c3)cn12 (stereo not shown) [Compound (16)]			capable of suppressing aryl hydrocarbon receptor activity even in the presence of the activator VAF347
